Source: PubChem BioAssay (NCI)
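Exposure lasted 48 hours, with cells grown in 96-well plates and compounds tested at five concentrations. TGI denotes the concentration required for complete inhibition of growth.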

Assays:
Experiment in all cases: NCI anticancer screen, dose series, 48 h
RPMI-8226 leukemia = tested on: RPMI-8226 leukemia
CCRF-CEM leukemia = tested on: CCRF-CEM leukemia
NCI-H522 lung = tested on: NCI-H522 lung
LXFL 529 NSCLC = tested on: LXFL 529 NSCLC
A498 renal = tested on: A498 renal
SNB-75 CNS = tested on: SNB-75 CNS
SF-268 CNS = tested on: SF-268 CNS
M14 melanoma = tested on: M14 melanoma
SN12C renal = tested on: SN12C renal
DLD-1 colon = tested on: DLD-1 colon
OVCAR-4 ovarian = tested on: OVCAR-4 ovarian
IGROV1 ovarian = tested on: IGROV1 ovarian
786-0 renal = tested on: 786-0 renal
NCI-H460 lung = tested on: NCI-H460 lung
SK-MEL-28 melanoma = tested on: SK-MEL-28 melanoma
SNB-78 CNS = tested on: SNB-78 CNS
DMS 114 small cell lung = tested on: DMS 114 small cell lung
HL-60(TB) leukemia = tested on: HL-60(TB) leukemia
DMS 273 small cell lung = tested on: DMS 273 small cell lung
NCI-H23 lung = tested on: NCI-H23 lung
SK-OV-3 ovarian = tested on: SK-OV-3 ovarian
HOP-92 NSCLC = tested on: HOP-92 NSCLC
HCT-116 colon = tested on: HCT-116 colon
HCC-2998 colon = tested on: HCC-2998 colon
SR leukemia = tested on: SR leukemia
MOLT-4 leukemia = tested on: MOLT-4 leukemia
MALME-3M melanoma = tested on: MALME-3M melanoma
UACC-62 melanoma = tested on: UACC-62 melanoma
M19-MEL melanoma = tested on: M19-MEL melanoma
K-562 leukemia = tested on: K-562 leukemia
HOP-62 NSCLC = tested on: HOP-62 NSCLC
NCI-H226 lung = tested on: NCI-H226 lung
XF 498 CNS = tested on: XF 498 CNS
COLO 205 colon = tested on: COLO 205 colon
UO-31 renal = tested on: UO-31 renal
SK-MEL-2 melanoma = tested on: SK-MEL-2 melanoma
SF-539 CNS = tested on: SF-539 CNS
CAKI-1 renal = tested on: CAKI-1 renal
ACHN renal = tested on: ACHN renal
SW-620 colon = tested on: SW-620 colon
KM12 colon = tested on: KM12 colon
U251 CNS = tested on: U251 CNS
HCT-15 colon = tested on: HCT-15 colon
SF-295 CNS = tested on: SF-295 CNS
HT29 colon = tested on: HT29 colon
RXF 393 renal = tested on: RXF 393 renal
TK-10 renal = tested on: TK-10 renal
A549 NSCLC = tested on: A549 NSCLC
OVCAR-5 ovarian = tested on: OVCAR-5 ovarian
EKVX NSCLC = tested on: EKVX NSCLC
OVCAR-3 ovarian = tested on: OVCAR-3 ovarian
LOX IMVI melanoma = tested on: LOX IMVI melanoma
SNB-19 CNS = tested on: SNB-19 CNS
UACC-257 melanoma = tested on: UACC-257 melanoma
OVCAR-8 ovarian = tested on: OVCAR-8 ovarian
SK-MEL-5 melanoma = tested on: SK-MEL-5 melanoma
KM20L2 colon = tested on: KM20L2 colon

Measured: TGI

Cc1ncc(CI)c(CI)c1O
41.6 µM: MOLT-4 leukemia
44.6 µM: SK-MEL-28 melanoma
35.3 µM: 786-0 renal | HOP-62 NSCLC
6.28 µM: UO-31 renal
36.7 µM: SR leukemia
32.1 µM: DMS 273 small cell lung
31.5 µM: K-562 leukemia
38.4 µM: XF 498 CNS
12.7 µM: NCI-H522 lung
5.29 µM: HL-60(TB) leukemia
48.2 µM: NCI-H23 lung
6.1 µM: NCI-H226 lung
35.2 µM: SN12C renal
> 100 µM: LXFL 529 NSCLC | A498 renal | M14 melanoma | OVCAR-4 ovarian | IGROV1 ovarian | NCI-H460 lung | SNB-78 CNS | DMS 114 small cell lung | SK-OV-3 ovarian | HOP-92 NSCLC | UACC-62 melanoma | M19-MEL melanoma | COLO 205 colon | CAKI-1 renal
33.3 µM: HCC-2998 colon
54.7 µM: SF-268 CNS
23.2 µM: CCRF-CEM leukemia
43.8 µM: SF-539 CNS
55.8 µM: DLD-1 colon
31.4 µM: RPMI-8226 leukemia | HCT-116 colon
42.5 µM: MALME-3M melanoma
42.4 µM: SK-MEL-2 melanoma
41.2 µM: SNB-75 CNS

O/N=C/c1ccc(O)c(O)c1
> 100 µM: ACHN renal | CCRF-CEM leukemia | NCI-H522 lung | LXFL 529 NSCLC | A498 renal | SNB-75 CNS | SF-268 CNS | M14 melanoma | KM12 colon | U251 CNS | HCT-15 colon | SF-295 CNS | HT29 colon | RXF 393 renal | TK-10 renal | SN12C renal | DLD-1 colon | OVCAR-4 ovarian | IGROV1 ovarian | A549 NSCLC | 786-0 renal | NCI-H460 lung | SK-MEL-28 melanoma | SNB-78 CNS | OVCAR-5 ovarian | DMS 114 small cell lung | EKVX NSCLC | DMS 273 small cell lung | NCI-H23 lung | OVCAR-3 ovarian | SK-OV-3 ovarian | HOP-92 NSCLC | LOX IMVI melanoma | HCT-116 colon | HCC-2998 colon | SNB-19 CNS | UACC-257 melanoma | SR leukemia | MOLT-4 leukemia | MALME-3M melanoma | UACC-62 melanoma | M19-MEL melanoma | K-562 leukemia | HOP-62 NSCLC | NCI-H226 lung | XF 498 CNS | COLO 205 colon | OVCAR-8 ovarian | SK-MEL-5 melanoma | KM20L2 colon | UO-31 renal | SK-MEL-2 melanoma | SF-539 CNS | CAKI-1 renal
58.8 µM: HL-60(TB) leukemia
35.3 µM: SW-620 colon
